# Source: patent publication US20100069339A1, “NOVEL METHOD OF TREATMENT OF MALE SUB-FERTILITY” (BIOXELL S.P.A., priority 2006, published 2010)
# “Also recorded” adds a separate entry of the source.
# Assays:
# [1] = system: matrix metalloproteinase MMP2; assay: Sandwich ELISA of seminal plasma MMP2 in trial patients; type: in vivo, human; conditions: CP/CPPS patients, treatment vs placebo
# Source text: (§1) A sandwich ELISA system was used to re-evaluate seminal plasma IL-8 level in 27 Placebo-treated and 29 Compound A—treated patients from the trial described in Biological Example 5 and to extend the analysis to other inflammatory mediators. Note that TIMP-1 is an inhibitor of an inflammatory marker.
# IL-8 [2] = assay: Sandwich ELISA re-evaluation of seminal plasma IL-8 in trial patients; type: in vivo, human; conditions: 29 Compound A-treated vs 27 Placebo-treated patients, p=0.002
# Source text: as §1
# [3] = system: tissue inhibitor of metalloproteinase TIM-1; assay: Sandwich ELISA of seminal plasma TIM-1 in trial patients; type: in vivo, human; conditions: CP/CPPS patients, treatment vs placebo
# Source text: as §1
# IL-8 [4] = assay: Seminal IL-8 in CP/CPPS patients, randomized double-blind placebo controlled study; type: in vivo, human
# Source text: We conducted a randomized, double-blind placebo controlled study in 121 patients with CP/CPPS. The primary objective of the study was to evaluate the effect of Compound A(150 mcg/die) after three months of treatment on the NIH score, a score encompassing pain, quality of life and lower urinary tract symptoms. As a secondary endpoint, we measured IL8 in the semen at baseline and at the end of the treatment.
# [5] = system: soluble pattern recognition receptor PTX3; assay: Sandwich ELISA of seminal plasma PTX3 in trial patients; type: in vivo, human; conditions: CP/CPPS patients, treatment vs placebo
# Source text: as §1
# human BPH cells = assay: Inhibition of IL-8 production in human BPH cells by vitamin D compounds; type: cell-based; conditions: BPH cells stimulated with IL-17 10 ng/ml and interferon gamma 10 ng/ml; compounds at 1, 10 and 100 nM, 72 hours; ELISA
# Method: Approximately 2000 human BPH cells were placed in wells of a standard 96 well plate and stimulated for 72 hours with IL-17 at 10 ng/ml and interferon gamma at 10 ng/ml and incubated with vitamin D compounds individually at concentrations of 1, 10 and 100 nM for 72 hours IL-8 production by the cells was measured by conventional two-site ELISA using human IL-8 ELISA set (BD Biosciences, San Diego, Calif.) according to the manufacturer's instructions.
# CCL2/MCP-1 = assay: Sandwich ELISA of seminal plasma CCL2/MCP-1 in trial patients; type: in vivo, human; conditions: CP/CPPS patients, treatment vs placebo
# Source text: as §1
# BPH cells = conditions: cited from earlier work
compound,measurement,setting,value
"C=C1/C(=C\C=C2/CCC[C@]3(C)C([C@@H](C)C/C=C/C(O)(CC)CC)=CC[C@@H]23)C[C@@H](O)C[C@@H]1F [Compound A, 1-alpha-fluoro-25-hydroxy-16,23E-diene-26,27-bishomo-20-epi-cholecalciferol]",MMP2 level in seminal plasma,[1],decreased
same,seminal plasma IL-8 levels compared to placebo,IL-8 [2],Significantly reduced
same,TIM-1 level in seminal plasma,[3],enhanced
same,IL-8 levels in the semen vs. placebo,"IL-8 [4]; 150 mcg/die, after 12 weeks",significantly reduce; also recorded: can lower seminal IL-8 levels in human patients
same,"Seminal IL-8, % Change vs Baseline Week 12, 25th perc.","IL-8 [4]; 150 mcg/die, week 12",−42.37%
same,"Seminal IL-8, % Change vs Baseline Week 12, 75th perc.","IL-8 [4]; 150 mcg/die, week 12",1.05%
same,"Seminal IL-8, % Change vs Baseline Week 12, Max","IL-8 [4]; 150 mcg/die, week 12",89.48%
same,"Seminal IL-8, % Change vs Baseline Week 12, Mean","IL-8 [4]; 150 mcg/die, week 12",−19.33%
same,"Seminal IL-8, % Change vs Baseline Week 12, Median","IL-8 [4]; 150 mcg/die, week 12",−19.17%
same,"Seminal IL-8, % Change vs Baseline Week 12, Min","IL-8 [4]; 150 mcg/die, week 12",−61.82%
same,"Seminal IL-8, Abs Change vs Baseline Week 12, 25th perc.","IL-8 [4]; 150 mcg/die, week 12",−723.00
same,"Seminal IL-8, Abs Change vs Baseline Week 12, 75th perc.","IL-8 [4]; 150 mcg/die, week 12",12.50
same,"Seminal IL-8, Abs Change vs Baseline Week 12, Max","IL-8 [4]; 150 mcg/die, week 12",604.00
same,"Seminal IL-8, Abs Change vs Baseline Week 12, Mean","IL-8 [4]; 150 mcg/die, week 12",−368.34
same,"Seminal IL-8, Abs Change vs Baseline Week 12, Median","IL-8 [4]; 150 mcg/die, week 12",−358.00
same,"Seminal IL-8, Abs Change vs Baseline Week 12, Min","IL-8 [4]; 150 mcg/die, week 12",−1264.00
same,"Seminal IL-8, Week 12, 25th perc.","IL-8 [4]; 150 mcg/die, week 12",809.50
same,"Seminal IL-8, Week 12, 75th perc.","IL-8 [4]; 150 mcg/die, week 12",1394.00
same,"Seminal IL-8, Week 12, Max","IL-8 [4]; 150 mcg/die, week 12",2599.00
same,"Seminal IL-8, Week 12, Mean","IL-8 [4]; 150 mcg/die, week 12",1172.57
same,"Seminal IL-8, Week 12, Median","IL-8 [4]; 150 mcg/die, week 12",985.50
same,"Seminal IL-8, Week 12, Min","IL-8 [4]; 150 mcg/die, week 12",386.00
same,"Seminal IL-8, Baseline, 25th perc.",IL-8 [4]; before treatment,947.50
same,"Seminal IL-8, Baseline, 75th perc.",IL-8 [4]; before treatment,1903.50
same,"Seminal IL-8, Baseline, Max",IL-8 [4]; before treatment,3015.00
same,"Seminal IL-8, Baseline, Mean",IL-8 [4]; before treatment,1486.43
same,"Seminal IL-8, Baseline, Median",IL-8 [4]; before treatment,1376.50
same,"Seminal IL-8, Baseline, Min",IL-8 [4]; before treatment,468.00
same,PTX3 level in seminal plasma,[5],decreased
same,IL-8 production (IL-8 concentration),human BPH cells,can lower IL-8 levels in vitro
same,CCL2/MCP-1 level in seminal plasma,CCL2/MCP-1,decreased
"C=C1CC[C@H](O)C/C1=C/C=C1\CCC[C@]2(C)[C@@H]([C@H](C)CCCC(C)C)CC[C@@H]12 [vitamin D3, 9,10-secocholesta-5,7,10(19)-trien-3B-ol]",BPH cell proliferation,BPH cells,inhibited
same,mitogenic activity of growth factors for BPH cells,BPH cells; keratinocyte growth factor (KGF) and insulin-like growth factor (IGF1),counteracted
